In the supplement of paper PMC4862054:

Each compound was assayed on HDQ-P1 (assay: normalised response (% of control), CellTiter-Glo; higher = more viable cells (100 = DMSO, 0 = benzethonium chloride kill control)). Conditions: incubation time: 72 h.
Experimental: (§1)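 DSRT, 72 h incubation, CellTox Green / CellTiter-Glo readout. Signal is normalised to DMSO and benzethonium chloride controls. Value is the normalised response at dose 3.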

Row | Compound | normalised response [%]
1 | CC(C)Cn1cnc2c(N)nc3ccccc3c21 [Imiquimod] (25 nM) | 101
2 | Cc1ccc(C(=O)N(CCCN)[C@@H](c2oc3cc(Cl)ccc3c(=O)c2Cc2ccccc2)C(C)C)cc1 (1 nM) | 105
3 | Clc1ccc(Nc2nnc(Cc3ccncc3)c3ccccc23)cc1 [Vatalanib] (100 nM) | 101
4 | Cc1ccc(C(=O)Nc2ccc(CN3CCN(C)CC3)c(C(F)(F)F)c2)cc1C#Cc1cnc2cccnn12 [Ponatinib] (10 nM) | 105
5 | N.N.[Cl][Pt][Cl] [Cisplatin] (10 nM) | 101
6 | COc1cc([C@@H]2c3cc4c(cc3[C@@H](O[C@@H]3O[C@@H]5CO[C@@H](C)O[C@H]5[C@H](O)[C@H]3O)[C@H]3COC(=O)[C@H]23)OCO4)cc(OC)c1O [Etoposide] (100 nM) | 102
7 | COc1cc2ncnc(Nc3ccc(F)c(Cl)c3)c2cc1NC(=O)/C=C/CN1CCCCC1 [Dacomitinib] (10 nM) | 77
8 | NC(=O)Nc1cc(-c2cccc(F)c2)sc1C(=O)N[C@H]1CCCNC1 [AZD7762] (10 nM) | 94
9 | CO[C@H]1/C=C\C=C(/C)C(=O)NC2=CC(=O)C(NCCN(C)C)=C(C[C@@H](C)C[C@H](OC)[C@H](O)[C@@H](C)/C=C(\C)[C@@H]1OC(N)=O)C2=O [Alvespimycin] (10 nM) | 89.5

What follows are compounds tested on MFM-223 in the same assay as above. Conditions: incubation time: 72 h.
Experimental: as §1

Row | Compound | normalised response [%]
10 | CC(C)Cn1cnc2c(N)nc3ccccc3c21 [Imiquimod] (25 nM) | 107
11 | Cc1ccc(C(=O)N(CCCN)[C@@H](c2oc3cc(Cl)ccc3c(=O)c2Cc2ccccc2)C(C)C)cc1 (1 nM) | 91.4
12 | Clc1ccc(Nc2nnc(Cc3ccncc3)c3ccccc23)cc1 [Vatalanib] (100 nM) | 107
13 | Cc1ccc(C(=O)Nc2ccc(CN3CCN(C)CC3)c(C(F)(F)F)c2)cc1C#Cc1cnc2cccnn12 [Ponatinib] (10 nM) | 88.4
14 | N.N.[Cl][Pt][Cl] [Cisplatin] (10 nM) | 99.8
15 | COc1cc([C@@H]2c3cc4c(cc3[C@@H](O[C@@H]3O[C@@H]5CO[C@@H](C)O[C@H]5[C@H](O)[C@H]3O)[C@H]3COC(=O)[C@H]23)OCO4)cc(OC)c1O [Etoposide] (100 nM) | 110
16 | COc1cc2ncnc(Nc3ccc(F)c(Cl)c3)c2cc1NC(=O)/C=C/CN1CCCCC1 [Dacomitinib] (10 nM) | 103
17 | NC(=O)Nc1cc(-c2cccc(F)c2)sc1C(=O)N[C@H]1CCCNC1 [AZD7762] (10 nM) | 103
18 | CO[C@H]1/C=C\C=C(/C)C(=O)NC2=CC(=O)C(NCCN(C)C)=C(C[C@@H](C)C[C@H](OC)[C@H](O)[C@@H](C)/C=C(\C)[C@@H]1OC(N)=O)C2=O [Alvespimycin] (10 nM) | 88.1

Each compound was assayed on MDA-MB-231 in the same assay as above. Conditions: incubation time: 72 h.
Experimental: as §1

Row | Compound | normalised response [%]
19 | CC(C)Cn1cnc2c(N)nc3ccccc3c21 [Imiquimod] (25 nM) | 102
20 | Cc1ccc(C(=O)N(CCCN)[C@@H](c2oc3cc(Cl)ccc3c(=O)c2Cc2ccccc2)C(C)C)cc1 (1 nM) | 103
21 | Clc1ccc(Nc2nnc(Cc3ccncc3)c3ccccc23)cc1 [Vatalanib] (100 nM) | 105
22 | Cc1ccc(C(=O)Nc2ccc(CN3CCN(C)CC3)c(C(F)(F)F)c2)cc1C#Cc1cnc2cccnn12 [Ponatinib] (10 nM) | 99.6
23 | N.N.[Cl][Pt][Cl] [Cisplatin] (10 nM) | 103
24 | COc1cc([C@@H]2c3cc4c(cc3[C@@H](O[C@@H]3O[C@@H]5CO[C@@H](C)O[C@H]5[C@H](O)[C@H]3O)[C@H]3COC(=O)[C@H]23)OCO4)cc(OC)c1O [Etoposide] (100 nM) | 120
25 | COc1cc2ncnc(Nc3ccc(F)c(Cl)c3)c2cc1NC(=O)/C=C/CN1CCCCC1 [Dacomitinib] (10 nM) | 106
26 | NC(=O)Nc1cc(-c2cccc(F)c2)sc1C(=O)N[C@H]1CCCNC1 [AZD7762] (10 nM) | 104
27 | CO[C@H]1/C=C\C=C(/C)C(=O)NC2=CC(=O)C(NCCN(C)C)=C(C[C@@H](C)C[C@H](OC)[C@H](O)[C@@H](C)/C=C(\C)[C@@H]1OC(N)=O)C2=O [Alvespimycin] (10 nM) | 106

These compounds were tested on SK-BR-3 in the same assay as above. Conditions: incubation time: 72 h.
Experimental: as §1

Row | Compound | normalised response [%]
28 | CC(C)Cn1cnc2c(N)nc3ccccc3c21 [Imiquimod] (25 nM) | 106
29 | Cc1ccc(C(=O)N(CCCN)[C@@H](c2oc3cc(Cl)ccc3c(=O)c2Cc2ccccc2)C(C)C)cc1 (1 nM) | 88.2
30 | Clc1ccc(Nc2nnc(Cc3ccncc3)c3ccccc23)cc1 [Vatalanib] (100 nM) | 102
31 | Cc1ccc(C(=O)Nc2ccc(CN3CCN(C)CC3)c(C(F)(F)F)c2)cc1C#Cc1cnc2cccnn12 [Ponatinib] (10 nM) | 106
32 | N.N.[Cl][Pt][Cl] [Cisplatin] (10 nM) | 93.5
33 | COc1cc([C@@H]2c3cc4c(cc3[C@@H](O[C@@H]3O[C@@H]5CO[C@@H](C)O[C@H]5[C@H](O)[C@H]3O)[C@H]3COC(=O)[C@H]23)OCO4)cc(OC)c1O [Etoposide] (100 nM) | 109
34 | COc1cc2ncnc(Nc3ccc(F)c(Cl)c3)c2cc1NC(=O)/C=C/CN1CCCCC1 [Dacomitinib] (10 nM) | 77.3
35 | NC(=O)Nc1cc(-c2cccc(F)c2)sc1C(=O)N[C@H]1CCCNC1 [AZD7762] (10 nM) | 103
36 | CO[C@H]1/C=C\C=C(/C)C(=O)NC2=CC(=O)C(NCCN(C)C)=C(C[C@@H](C)C[C@H](OC)[C@H](O)[C@@H](C)/C=C(\C)[C@@H]1OC(N)=O)C2=O [Alvespimycin] (10 nM) | 72.3

The compounds below were run on DU-4475 in the same assay as above. Conditions: incubation time: 72 h.
Experimental: as §1

Row | Compound | normalised response [%]
37 | CC(C)Cn1cnc2c(N)nc3ccccc3c21 [Imiquimod] (25 nM) | 107
38 | Cc1ccc(C(=O)N(CCCN)[C@@H](c2oc3cc(Cl)ccc3c(=O)c2Cc2ccccc2)C(C)C)cc1 (1 nM) | 96.6
39 | Clc1ccc(Nc2nnc(Cc3ccncc3)c3ccccc23)cc1 [Vatalanib] (100 nM) | 105
40 | Cc1ccc(C(=O)Nc2ccc(CN3CCN(C)CC3)c(C(F)(F)F)c2)cc1C#Cc1cnc2cccnn12 [Ponatinib] (10 nM) | 101
41 | N.N.[Cl][Pt][Cl] [Cisplatin] (10 nM) | 96.6
42 | COc1cc([C@@H]2c3cc4c(cc3[C@@H](O[C@@H]3O[C@@H]5CO[C@@H](C)O[C@H]5[C@H](O)[C@H]3O)[C@H]3COC(=O)[C@H]23)OCO4)cc(OC)c1O [Etoposide] (100 nM) | 82.9
43 | COc1cc2ncnc(Nc3ccc(F)c(Cl)c3)c2cc1NC(=O)/C=C/CN1CCCCC1 [Dacomitinib] (10 nM) | 104
44 | NC(=O)Nc1cc(-c2cccc(F)c2)sc1C(=O)N[C@H]1CCCNC1 [AZD7762] (10 nM) | 102
45 | CO[C@H]1/C=C\C=C(/C)C(=O)NC2=CC(=O)C(NCCN(C)C)=C(C[C@@H](C)C[C@H](OC)[C@H](O)[C@@H](C)/C=C(\C)[C@@H]1OC(N)=O)C2=O [Alvespimycin] (10 nM) | 103

The compounds below were run on CAL-51 in the same assay as above. Conditions: incubation time: 72 h.
Experimental: as §1

Row | Compound | normalised response [%]
46 | CC(C)Cn1cnc2c(N)nc3ccccc3c21 [Imiquimod] (25 nM) | 81.8
47 | Cc1ccc(C(=O)N(CCCN)[C@@H](c2oc3cc(Cl)ccc3c(=O)c2Cc2ccccc2)C(C)C)cc1 (1 nM) | 65.8
48 | Clc1ccc(Nc2nnc(Cc3ccncc3)c3ccccc23)cc1 [Vatalanib] (100 nM) | 89.3
49 | Cc1ccc(C(=O)Nc2ccc(CN3CCN(C)CC3)c(C(F)(F)F)c2)cc1C#Cc1cnc2cccnn12 [Ponatinib] (10 nM) | 106
50 | N.N.[Cl][Pt][Cl] [Cisplatin] (10 nM) | 90.6
51 | COc1cc([C@@H]2c3cc4c(cc3[C@@H](O[C@@H]3O[C@@H]5CO[C@@H](C)O[C@H]5[C@H](O)[C@H]3O)[C@H]3COC(=O)[C@H]23)OCO4)cc(OC)c1O [Etoposide] (100 nM) | 107
52 | COc1cc2ncnc(Nc3ccc(F)c(Cl)c3)c2cc1NC(=O)/C=C/CN1CCCCC1 [Dacomitinib] (10 nM) | 91
53 | NC(=O)Nc1cc(-c2cccc(F)c2)sc1C(=O)N[C@H]1CCCNC1 [AZD7762] (10 nM) | 106
54 | CO[C@H]1/C=C\C=C(/C)C(=O)NC2=CC(=O)C(NCCN(C)C)=C(C[C@@H](C)C[C@H](OC)[C@H](O)[C@@H](C)/C=C(\C)[C@@H]1OC(N)=O)C2=O [Alvespimycin] (10 nM) | 101

The compounds below were run on CAL-148 in the same assay as above. Conditions: incubation time: 72 h.
Experimental: as §1

Row | Compound | normalised response [%]
55 | CC(C)Cn1cnc2c(N)nc3ccccc3c21 [Imiquimod] (25 nM) | 110
56 | Cc1ccc(C(=O)N(CCCN)[C@@H](c2oc3cc(Cl)ccc3c(=O)c2Cc2ccccc2)C(C)C)cc1 (1 nM) | 84.9
57 | Clc1ccc(Nc2nnc(Cc3ccncc3)c3ccccc23)cc1 [Vatalanib] (100 nM) | 112
58 | Cc1ccc(C(=O)Nc2ccc(CN3CCN(C)CC3)c(C(F)(F)F)c2)cc1C#Cc1cnc2cccnn12 [Ponatinib] (10 nM) | 106
59 | N.N.[Cl][Pt][Cl] [Cisplatin] (10 nM) | 82.8
60 | COc1cc([C@@H]2c3cc4c(cc3[C@@H](O[C@@H]3O[C@@H]5CO[C@@H](C)O[C@H]5[C@H](O)[C@H]3O)[C@H]3COC(=O)[C@H]23)OCO4)cc(OC)c1O [Etoposide] (100 nM) | 103
61 | COc1cc2ncnc(Nc3ccc(F)c(Cl)c3)c2cc1NC(=O)/C=C/CN1CCCCC1 [Dacomitinib] (10 nM) | 103
62 | NC(=O)Nc1cc(-c2cccc(F)c2)sc1C(=O)N[C@H]1CCCNC1 [AZD7762] (10 nM) | 106
63 | CO[C@H]1/C=C\C=C(/C)C(=O)NC2=CC(=O)C(NCCN(C)C)=C(C[C@@H](C)C[C@H](OC)[C@H](O)[C@@H](C)/C=C(\C)[C@@H]1OC(N)=O)C2=O [Alvespimycin] (10 nM) | 110

What follows are compounds tested on HCC1937 in the same assay as above. Conditions: incubation time: 72 h.
Experimental: as §1

Row | Compound | normalised response [%]
64 | CC(C)Cn1cnc2c(N)nc3ccccc3c21 [Imiquimod] (25 nM) | 94.8
65 | Cc1ccc(C(=O)N(CCCN)[C@@H](c2oc3cc(Cl)ccc3c(=O)c2Cc2ccccc2)C(C)C)cc1 (1 nM) | 94.3
66 | Clc1ccc(Nc2nnc(Cc3ccncc3)c3ccccc23)cc1 [Vatalanib] (100 nM) | 103
67 | Cc1ccc(C(=O)Nc2ccc(CN3CCN(C)CC3)c(C(F)(F)F)c2)cc1C#Cc1cnc2cccnn12 [Ponatinib] (10 nM) | 94.3
68 | N.N.[Cl][Pt][Cl] [Cisplatin] (10 nM) | 97.7
69 | COc1cc([C@@H]2c3cc4c(cc3[C@@H](O[C@@H]3O[C@@H]5CO[C@@H](C)O[C@H]5[C@H](O)[C@H]3O)[C@H]3COC(=O)[C@H]23)OCO4)cc(OC)c1O [Etoposide] (100 nM) | 94.9
70 | COc1cc2ncnc(Nc3ccc(F)c(Cl)c3)c2cc1NC(=O)/C=C/CN1CCCCC1 [Dacomitinib] (10 nM) | 98.1
71 | NC(=O)Nc1cc(-c2cccc(F)c2)sc1C(=O)N[C@H]1CCCNC1 [AZD7762] (10 nM) | 95
72 | CO[C@H]1/C=C\C=C(/C)C(=O)NC2=CC(=O)C(NCCN(C)C)=C(C[C@@H](C)C[C@H](OC)[C@H](O)[C@@H](C)/C=C(\C)[C@@H]1OC(N)=O)C2=O [Alvespimycin] (10 nM) | 94.8

Each compound was assayed on BT-549 in the same assay as above. Conditions: incubation time: 72 h.
Experimental: as §1

Row | Compound | normalised response [%]
73 | CC(C)Cn1cnc2c(N)nc3ccccc3c21 [Imiquimod] (25 nM) | 103
74 | Cc1ccc(C(=O)N(CCCN)[C@@H](c2oc3cc(Cl)ccc3c(=O)c2Cc2ccccc2)C(C)C)cc1 (1 nM) | 101
75 | Clc1ccc(Nc2nnc(Cc3ccncc3)c3ccccc23)cc1 [Vatalanib] (100 nM) | 109
76 | Cc1ccc(C(=O)Nc2ccc(CN3CCN(C)CC3)c(C(F)(F)F)c2)cc1C#Cc1cnc2cccnn12 [Ponatinib] (10 nM) | 104
77 | N.N.[Cl][Pt][Cl] [Cisplatin] (10 nM) | 107
78 | COc1cc([C@@H]2c3cc4c(cc3[C@@H](O[C@@H]3O[C@@H]5CO[C@@H](C)O[C@H]5[C@H](O)[C@H]3O)[C@H]3COC(=O)[C@H]23)OCO4)cc(OC)c1O [Etoposide] (100 nM) | 94.6
79 | COc1cc2ncnc(Nc3ccc(F)c(Cl)c3)c2cc1NC(=O)/C=C/CN1CCCCC1 [Dacomitinib] (10 nM) | 105
